Assay results from patent US20150005281A1, “PYRIMIDINE-2,4-DIAMINE DERIVATIVES AS KINASE INHIBITORS” (Cellzome Limited, priority 2011, published 2015).
pIC50: −log10 of the molar value.

Key:
Type in all cases: binding
JAK1 = molecular target: T1, JAK1 (Homo sapiens, UniProt P23458); experiment: Kinobeads assay with immunodetection, JAK1; conditions: for pIC50: Kinobeads assay, mixed Molt4/Ramos lysate, read-out: Inhibition values (IC50) JAK1
T1 construct: endogenous in cells; host or cells: Molt4 (ATCC CRL-1582) and Ramos (ATCC CRL-1596) cells; mixed lysate 1:2
Experimental: (§1) Determination of the Effect of the Compounds According to the Invention on Janus Kinases (JAK Family) in Kinobeads™ Assays with Immunodetection of Kinases
(§2) The compounds of the present invention as described in the previous examples were tested in a Kinobeads™ assay as described for ZAP-70 (WO-A 2007/137867). Briefly, test compounds (at various concentrations) and the affinity matrix with the immobilized aminopyrido-pyrimidine ligand 24 were added to cell lysate aliquots and allowed to bind to the proteins in the lysate sample. After the incubation time the beads with captured proteins were separated from the lysate. Bound proteins were then eluted and the presence of JAK1, JAK2, JAK3 and TYK2 was detected and quantified using specific antibodies in a dot blot procedure and the Odyssey infrared detection system. Dose response curves for individual kinases were generated and IC50 values calculated. Kinobeads™ assays for ZAP-70 (WO-A 2007/137867) and for kinase selectivity profiling (WO-A 2006/134056) have been previously described.
(§3) The affinity matrix was washed two times with 15 mL of 1×DP buffer containing 0.2% NP40 (IGEPAL® CA-630, Sigma, #13021) and then resuspended in 1×DP buffer containing 0.2% NP40 (3% beads slurry).
(§4) 5×DP buffer: 250 mM Tris-HCl pH 7.4, 25% Glycerol, 7.5 mM MgCl2, 750 mM NaCl, 5 mM Na3VO4; filter the 5×DP buffer through a 0.22 μm filter and store in aliquots at −80° C. The 5×DP buffer is diluted with H2O to 1×DP buffer containing 1 mM DTT and 25 mM NaF.
(§5) Stock solutions of test compounds were prepared in DMSO. In a 96 well plate 30 μL solution of diluted test compounds at 5 mM in DMSO were prepared. Starting with this solution a 1:3 dilution series (9 steps) was prepared. For control experiments (no test compound) a buffer containing 2% DMSO was used.
(§6) Molt4 cells (ATCC catalogue number CRL-1582) and Ramos cells (ATCC catalogue number CRL-1596) were grown in 1 L Spinner flasks (Integra Biosciences, #182101) in suspension in RPMI 1640 medium (Invitrogen, #21875-034) supplemented with 10% Fetal Bovine Serum (Invitrogen) at a density between 0.15×10^6 and 1.2×10^6 cells/mL. Cells were harvested by centrifugation, washed once with 1×PBS buffer (Invitrogen, #14190-094) and cell pellets were frozen in liquid nitrogen and subsequently stored at −80° C. Cells were homogenized in a Potter S homogenizer in lysis buffer: 50 mM Tris-HCl, 0.8% NP40, 5% glycerol, 150 mM NaCl, 1.5 mM MgCl2, 25 mM NaF, 1 mM sodium vanadate, 1 mM DTT, pH 7.5. One complete EDTA-free tablet (protease inhibitor cocktail, Roche Diagnostics, 1873580) per 25 ml, buffer was added. The material was dounced 10 times using a mechanized POTTER S, transferred to 50 mL falcon tubes, incubated for 30 minutes on ice and spun down for 10 minutes at 20,000 g at 4° C. (10,000 rpm in Sorvall SLA600, precooled). The supernatant was transferred to an ultracentrifuge (UZ)-polycarbonate tube (Beckmann, 355654) and spun for 1 hour at 100.000 g at 4° C. (33.500 rpm in Ti50.2, precooled). The supernatant was transferred again to a fresh 50 mL falcon tube, the protein concentration was determined by a Bradford assay (BioRad) and samples containing 50 mg of protein per aliquot were prepared. The samples were immediately used for experiments or frozen in liquid nitrogen and stored frozen at −80° C.
(§7) Cell lysate (approximately 50 mg protein per plate) was thawed in a water bath at room temperature and then stored on ice. To the thawed cell lysate 1×DP 0.8% NP40 buffer containing protease inhibitors (1 tablet for 25 mL buffer; EDTA-free protease inhibitor cocktail; Roche Diagnostics 1873580) was added in order to reach a final protein concentration of 10 mg/mL total protein. The diluted cell lysate was stored on ice. Mixed Molt4/Ramos lysate was prepared by combining one volume of Molt4 lysate and two volumes of Ramos lysate (ratio 1:2). […]

JAK2 = molecular target: T2, JAK2 (Homo sapiens, UniProt O60674); experiment: Kinobeads assay with immunodetection, JAK2; conditions: mixed Molt4/Ramos lysate, read-out: Inhibition values (IC50) JAK2
T2 construct: endogenous in cells; host or cells: Molt4 (ATCC CRL-1582) and Ramos (ATCC CRL-1596) cells; mixed lysate 1:2
Experimental: as §1, §2, §3, §4, §5, §6, §7

JAK3 = molecular target: T3, JAK3 (Homo sapiens, UniProt P52333); experiment: Kinobeads assay with immunodetection, JAK3; conditions: for pIC50: Kinobeads assay, mixed Molt4/Ramos lysate, read-out: Inhibition values (IC50) JAK3
T3 construct: endogenous in cells; host or cells: Molt4 (ATCC CRL-1582) and Ramos (ATCC CRL-1596) cells; mixed lysate 1:2
T3 sequence (P52333 1-1124): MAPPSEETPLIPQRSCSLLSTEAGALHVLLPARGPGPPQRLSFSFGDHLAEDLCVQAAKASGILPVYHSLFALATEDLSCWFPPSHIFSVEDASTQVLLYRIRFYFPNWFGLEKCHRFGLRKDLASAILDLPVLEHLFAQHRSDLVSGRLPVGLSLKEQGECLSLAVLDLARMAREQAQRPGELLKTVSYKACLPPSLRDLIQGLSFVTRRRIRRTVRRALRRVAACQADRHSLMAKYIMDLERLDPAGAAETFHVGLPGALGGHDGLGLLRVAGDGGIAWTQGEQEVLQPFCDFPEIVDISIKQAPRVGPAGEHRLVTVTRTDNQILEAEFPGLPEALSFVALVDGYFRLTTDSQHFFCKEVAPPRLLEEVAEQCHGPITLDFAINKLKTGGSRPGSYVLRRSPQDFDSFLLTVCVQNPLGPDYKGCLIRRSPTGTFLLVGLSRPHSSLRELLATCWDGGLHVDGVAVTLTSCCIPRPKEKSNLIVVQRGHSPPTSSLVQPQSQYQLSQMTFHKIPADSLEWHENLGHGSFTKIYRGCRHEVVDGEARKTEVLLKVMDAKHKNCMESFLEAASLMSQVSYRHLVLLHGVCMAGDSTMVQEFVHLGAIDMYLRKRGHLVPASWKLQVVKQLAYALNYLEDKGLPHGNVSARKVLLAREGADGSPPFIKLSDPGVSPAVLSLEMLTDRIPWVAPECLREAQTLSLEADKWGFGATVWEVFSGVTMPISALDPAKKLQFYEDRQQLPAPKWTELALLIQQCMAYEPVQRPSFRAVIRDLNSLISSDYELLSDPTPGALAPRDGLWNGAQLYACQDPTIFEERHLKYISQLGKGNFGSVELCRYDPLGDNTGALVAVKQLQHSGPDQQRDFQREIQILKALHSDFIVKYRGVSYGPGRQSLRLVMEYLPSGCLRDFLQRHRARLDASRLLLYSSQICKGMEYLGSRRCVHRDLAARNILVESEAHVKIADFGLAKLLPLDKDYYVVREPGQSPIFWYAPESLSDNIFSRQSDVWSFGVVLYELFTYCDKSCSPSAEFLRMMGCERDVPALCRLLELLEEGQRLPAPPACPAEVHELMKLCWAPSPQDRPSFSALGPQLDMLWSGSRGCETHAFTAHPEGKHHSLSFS
Experimental: as §1, §2, §3, §4, §5, §6, §7

TYK2 = molecular target: T4, TYK2 (Homo sapiens, UniProt P29597); experiment: Kinobeads assay with immunodetection, TYK2; conditions: for pIC50: Kinobeads assay, mixed Molt4/Ramos lysate, read-out: Inhibition values (IC50) Tyk2
T4 construct: endogenous in cells; host or cells: Molt4 (ATCC CRL-1582) and Ramos (ATCC CRL-1596) cells; mixed lysate 1:2
Experimental: as §1, §2, §3, §4, §5, §6, §7

T2 sequence (O60674 whole entry): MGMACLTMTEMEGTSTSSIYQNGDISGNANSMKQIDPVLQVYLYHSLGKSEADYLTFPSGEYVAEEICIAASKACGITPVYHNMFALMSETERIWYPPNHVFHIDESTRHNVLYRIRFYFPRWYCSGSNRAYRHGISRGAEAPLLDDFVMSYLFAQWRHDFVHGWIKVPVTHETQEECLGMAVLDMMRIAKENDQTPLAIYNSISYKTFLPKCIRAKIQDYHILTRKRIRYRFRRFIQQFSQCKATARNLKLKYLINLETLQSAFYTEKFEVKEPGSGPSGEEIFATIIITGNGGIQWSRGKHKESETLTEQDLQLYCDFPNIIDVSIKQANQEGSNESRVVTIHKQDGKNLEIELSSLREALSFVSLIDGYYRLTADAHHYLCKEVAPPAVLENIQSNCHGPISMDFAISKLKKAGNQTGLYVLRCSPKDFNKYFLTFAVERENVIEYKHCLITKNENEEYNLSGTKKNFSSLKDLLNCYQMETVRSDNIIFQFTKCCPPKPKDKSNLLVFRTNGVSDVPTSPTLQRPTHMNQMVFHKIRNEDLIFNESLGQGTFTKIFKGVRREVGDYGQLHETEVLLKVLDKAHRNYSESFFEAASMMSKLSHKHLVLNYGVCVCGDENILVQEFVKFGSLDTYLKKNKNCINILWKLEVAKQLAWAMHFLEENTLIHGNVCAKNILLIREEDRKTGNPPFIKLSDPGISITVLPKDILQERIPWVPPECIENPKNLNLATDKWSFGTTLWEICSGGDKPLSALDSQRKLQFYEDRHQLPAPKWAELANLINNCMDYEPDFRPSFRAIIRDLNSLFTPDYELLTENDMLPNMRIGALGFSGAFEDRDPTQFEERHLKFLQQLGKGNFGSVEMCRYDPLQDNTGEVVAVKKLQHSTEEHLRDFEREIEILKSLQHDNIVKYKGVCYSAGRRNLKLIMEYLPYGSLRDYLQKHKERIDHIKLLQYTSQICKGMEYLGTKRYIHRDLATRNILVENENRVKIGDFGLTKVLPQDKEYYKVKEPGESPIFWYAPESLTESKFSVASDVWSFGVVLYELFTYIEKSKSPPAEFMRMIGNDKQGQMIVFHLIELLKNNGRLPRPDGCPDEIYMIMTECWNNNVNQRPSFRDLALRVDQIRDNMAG
T4 sequence (P29597 whole entry): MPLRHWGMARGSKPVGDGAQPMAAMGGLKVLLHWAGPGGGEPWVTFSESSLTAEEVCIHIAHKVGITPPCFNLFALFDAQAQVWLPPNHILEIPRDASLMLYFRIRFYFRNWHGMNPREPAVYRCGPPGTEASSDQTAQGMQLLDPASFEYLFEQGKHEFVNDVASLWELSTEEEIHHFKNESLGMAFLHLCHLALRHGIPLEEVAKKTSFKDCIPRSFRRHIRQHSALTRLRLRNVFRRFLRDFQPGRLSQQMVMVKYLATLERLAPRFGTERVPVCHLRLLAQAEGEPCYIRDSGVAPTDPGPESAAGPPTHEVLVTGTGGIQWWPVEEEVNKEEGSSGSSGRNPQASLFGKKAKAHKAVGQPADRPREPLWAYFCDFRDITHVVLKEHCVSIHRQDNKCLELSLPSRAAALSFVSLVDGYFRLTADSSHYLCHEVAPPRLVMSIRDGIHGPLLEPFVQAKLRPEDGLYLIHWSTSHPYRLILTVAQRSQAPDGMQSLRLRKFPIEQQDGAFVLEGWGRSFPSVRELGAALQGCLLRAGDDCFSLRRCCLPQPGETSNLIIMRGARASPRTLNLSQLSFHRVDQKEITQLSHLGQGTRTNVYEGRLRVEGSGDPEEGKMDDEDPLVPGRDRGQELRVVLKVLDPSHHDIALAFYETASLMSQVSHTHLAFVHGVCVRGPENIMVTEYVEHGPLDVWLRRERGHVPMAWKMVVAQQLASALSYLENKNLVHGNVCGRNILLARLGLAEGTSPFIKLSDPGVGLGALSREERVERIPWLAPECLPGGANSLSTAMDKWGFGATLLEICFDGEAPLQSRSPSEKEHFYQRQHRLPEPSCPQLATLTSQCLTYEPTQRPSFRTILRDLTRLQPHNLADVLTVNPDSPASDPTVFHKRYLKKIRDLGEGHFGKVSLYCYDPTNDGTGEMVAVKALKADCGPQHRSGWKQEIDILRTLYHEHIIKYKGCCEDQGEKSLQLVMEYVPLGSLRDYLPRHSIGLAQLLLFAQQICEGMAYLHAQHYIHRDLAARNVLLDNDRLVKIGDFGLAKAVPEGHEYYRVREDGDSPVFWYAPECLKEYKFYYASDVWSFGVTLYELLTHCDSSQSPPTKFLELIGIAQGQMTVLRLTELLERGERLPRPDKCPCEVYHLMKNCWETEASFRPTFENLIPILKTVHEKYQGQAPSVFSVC
T1 sequence (P23458 whole entry): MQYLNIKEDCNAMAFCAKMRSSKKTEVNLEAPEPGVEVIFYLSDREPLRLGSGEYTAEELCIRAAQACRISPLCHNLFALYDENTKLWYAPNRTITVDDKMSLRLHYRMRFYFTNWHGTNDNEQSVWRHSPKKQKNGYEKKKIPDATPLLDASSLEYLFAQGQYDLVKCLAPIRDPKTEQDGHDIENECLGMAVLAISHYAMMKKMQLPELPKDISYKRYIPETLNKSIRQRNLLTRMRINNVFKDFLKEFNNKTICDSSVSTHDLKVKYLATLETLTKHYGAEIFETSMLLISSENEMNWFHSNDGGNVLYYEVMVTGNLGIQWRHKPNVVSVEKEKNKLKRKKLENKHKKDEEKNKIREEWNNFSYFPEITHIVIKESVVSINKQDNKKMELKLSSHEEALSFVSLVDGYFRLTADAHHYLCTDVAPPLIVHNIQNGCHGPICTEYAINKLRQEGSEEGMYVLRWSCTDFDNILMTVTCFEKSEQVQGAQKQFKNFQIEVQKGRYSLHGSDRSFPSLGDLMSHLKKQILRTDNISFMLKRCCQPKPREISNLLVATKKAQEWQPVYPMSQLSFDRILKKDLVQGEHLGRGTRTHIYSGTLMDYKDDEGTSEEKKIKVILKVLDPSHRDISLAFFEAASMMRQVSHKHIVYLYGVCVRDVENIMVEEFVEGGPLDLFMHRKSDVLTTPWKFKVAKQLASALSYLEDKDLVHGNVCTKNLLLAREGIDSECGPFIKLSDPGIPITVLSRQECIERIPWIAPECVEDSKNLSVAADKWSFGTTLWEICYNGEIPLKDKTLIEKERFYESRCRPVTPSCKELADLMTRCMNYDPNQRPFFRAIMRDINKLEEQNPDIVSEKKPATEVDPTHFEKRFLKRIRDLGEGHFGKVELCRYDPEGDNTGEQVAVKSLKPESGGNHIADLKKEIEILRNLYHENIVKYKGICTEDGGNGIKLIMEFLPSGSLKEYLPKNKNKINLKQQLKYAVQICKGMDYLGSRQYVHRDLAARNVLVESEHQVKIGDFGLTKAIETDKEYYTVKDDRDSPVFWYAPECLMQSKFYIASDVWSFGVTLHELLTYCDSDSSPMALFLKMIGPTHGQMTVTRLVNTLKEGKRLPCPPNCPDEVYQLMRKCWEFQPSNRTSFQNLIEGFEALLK

SMILES	pIC50 (JAK1)	pIC50 (JAK2)	Selectivity ratio over JAK2, JAK3 (JAK3)	pIC50 (JAK3)	pIC50 (TYK2)	Selectivity ratio over JAK2, Tyk2 (TYK2)	Selectivity ratio over JAK2, JAK1 (JAK1)
Cn1cc(Nc2ncc(Cl)c(NC[C@H]3CCCN3CCCC#N)n2)cn1 [Example 97, (R)-4-(2-(((5-chloro-2-((1-methyl-1H-pyrazol-4-yl)amino)pyrimidin-4-yl)amino)methyl)pyrrolidin-1-yl)butanenitrile]	> 7.00	5.00 to 6.00	JAK3 = 160	> 7.00	> 7.00	–	–
Cc1cnc(Nc2cnn(CC(F)F)c2)nc1NC[C@H]1CCCN1CCC#N [Example 117, (R)-3-(2-(((2-((1-(2,2-difluoroethyl)-1H-pyrazol-4-yl)amino)-5-methylpyrimidin-4-yl)amino)methyl)pyrrolidin-1-yl)propanenitrile]	> 7.00	5.00 to 6.00	–	> 7.00	> 7.00	Tyk2 = 140	–
CC(=O)N1CCC[C@H]1CNc1nc(Nc2cnn(CCO)c2)ncc1Cl [Example 9, (S)-1-(2-(((5-chloro-2-((1-(2-hydroxyethyl)-1H-pyrazol-4-yl)amino)pyrimidin-4-yl)amino)methyl)pyrrolidin-1-yl)ethanone]	6.00 to 7.00	5.00 to 6.00	–	6.00 to 7.00	6.00 to 7.00	–	JAK1 = 25
Cc1cnc(Nc2cnn(CC(F)F)c2)nc1NC[C@@H]1CCCN1CCS(C)(=O)=O [Example 123, (S)—N^2-(1-(2,2-difluoroethyl)-1H-pyrazol-4-yl)-5-methyl-N^4-((1-(2-(methylsulfonyl)ethyl)pyrrolidin-2-yl)methyl)pyrimidine-2,4-diamine]	> 7.00	5.00 to 6.00	–	6.00 to 7.00	> 7.00	–	JAK1 = 182
CC(=O)N1CCCC[C@@H]1CNc1nc(Nc2cnn(C)c2)ncc1Cl [Example 39, (R)-1-(2-(((5-chloro-2-((1-methyl-1H-pyrazol-4-yl)amino)pyrimidin-4-yl)amino)methyl)piperidin-1-yl)ethanone]	6.00 to 7.00	5.00 to 6.00	–	6.00 to 7.00	> 7.00	Tyk2 = 8	–
Cn1cc(Nc2ncc(Cl)c(NC[C@@H]3C[C@H](F)CN3CCCC#N)n2)cn1 [Example 133, 4-((2S,4S)-2-(((5-chloro-2-((1-methyl-1H-pyrazol-4-yl)amino)pyrimidin-4-yl)amino)methyl)-4-fluoropyrrolidin-1-yl)butanenitrile]	> 7.00	> 7.00	–	> 7.00	> 7.00	–	JAK1 = 19
Cn1cc(Nc2ncc(F)c(NC[C@H]3CCCN3C(=O)CC#N)n2)cn1 [Example 113, (R)-3-(2-(((5-fluoro-2-((1-methyl-1H-pyrazol-4-yl)amino)pyrimidin-4-yl)amino)methyl)pyrrolidin-1-yl)-3-oxopropanenitrile]	> 7.00	5.00 to 6.00	–	6.00 to 7.00	> 7.00	Tyk2 = 170	–
Cn1cc(Nc2ncc(Cl)c(NCC3COCCN3CCS(C)(=O)=O)n2)cn1 (stereo not drawn) [Example 87, 5-chloro-N^2-(1-methyl-1H-pyrazol-4-yl)-N^4-((4-(2-(methylsulfonyl)ethyl)morpholin-3-yl)methyl)pyrimidine-2,4-diamine]	6.00 to 7.00	5.00 to 6.00	JAK3 = 33	> 7.00	6.00 to 7.00	–	–
Cc1cnc(Nc2cnn(C)c2)nc1NC[C@H]1CCCN1CCS(C)(=O)=O [Example 107, (R)-5-methyl-N^2-(1-methyl-1H-pyrazol-4-yl)-N^4-((1-(2-(methylsulfonyl)ethyl)pyrrolidin-2-yl)methyl)pyrimidine-2,4-diamine]	> 7.00	6.00 to 7.00	–	> 7.00	> 7.00	Tyk2 = 67	–
Cn1cc(Nc2ncc(Cl)c(NC[C@@H]3C[C@H](F)CN3CCC#N)n2)cn1 [Example 90, 3-((2S,4S)-2-(((5-chloro-2-((1-methyl-1H-pyrazol-4-yl)amino)pyrimidin-4-yl)amino)methyl)-4-fluoropyrrolidin-1-yl)propanenitrile]	> 7.00	6.00 to 7.00	–	> 7.00	> 7.00	–	JAK1 = 23
C=CC(=O)N1CCC[C@@H]1CNc1nc(Nc2cnn(CCO)c2)ncc1Cl [Example 4, (R)-1-(2-(((5-chloro-2-((1-(2-hydroxyethyl)-1H-pyrazol-4-yl)amino)pyrimidin-4-yl)amino)methyl)pyrrolidin-1-yl)prop-2-en-1-one]	> 7.00	6.00 to 7.00	–	6.00 to 7.00	> 7.00	Tyk2 = 8	–
Cc1cnc(Nc2cnn(C)c2)nc1NC[C@H]1CCCN1S(C)(=O)=O [Example 76, (R)-5-methyl-N^2-(1-methyl-1H-pyrazol-4-yl)-N^4-((1-(methylsulfonyl)pyrrolidin-2-yl)methyl)pyrimidine-2,4-diamine]	> 7.00	6.00 to 7.00	–	> 7.00	> 7.00	–	JAK1 = 26
